IC50 data for 4 compounds are collected here from ChEMBL document CHEMBL3638529, “Spiro-oxindole MDM2 antagonists” (2015).

The test addresses E3 ubiquitin-protein ligase Mdm2 (Homo sapiens, UniProt Q00987). In words: Fluorescence-Polarization Binding Assay: The binding affinity of the MDM2 inhibitors was determined using an optimized, sensitive and quantitative fluorescence polarization-based (FP-based) binding assay using a recombinant human His-tagged MDM2 protein (residues 1-118) and a fluorescently tagged p53-based peptide.The design of the fluorescence probe was based upon a previously reported ….

E3 ubiquitin-protein ligase Mdm2, sequence (Q00987 whole entry, the tested form may be a part): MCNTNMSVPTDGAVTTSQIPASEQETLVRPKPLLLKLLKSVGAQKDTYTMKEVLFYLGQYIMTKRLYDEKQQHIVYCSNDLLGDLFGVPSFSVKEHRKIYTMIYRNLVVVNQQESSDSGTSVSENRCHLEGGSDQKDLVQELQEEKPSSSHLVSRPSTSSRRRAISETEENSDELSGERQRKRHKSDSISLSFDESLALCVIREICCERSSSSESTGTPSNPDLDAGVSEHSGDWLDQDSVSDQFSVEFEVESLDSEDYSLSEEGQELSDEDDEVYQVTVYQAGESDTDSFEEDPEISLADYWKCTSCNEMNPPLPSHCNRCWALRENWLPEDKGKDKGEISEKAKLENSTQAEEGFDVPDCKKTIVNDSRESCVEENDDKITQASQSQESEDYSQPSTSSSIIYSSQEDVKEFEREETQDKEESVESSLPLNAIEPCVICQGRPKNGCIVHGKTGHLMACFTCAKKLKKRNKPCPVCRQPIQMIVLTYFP
Description: The assay was performed in the buffer: 100 mM potassium phosphate, pH 7.5; 100 ug/mL bovine gamma globulin; 0.02% sodium azide, 0.01% Triton X-100).

One may read the IC50 as the midpoint of a concentration-inhibition curve. With `CC(C)(C)C[C@H]1N[C@@H](C(=O)NCC[C@H]2CC[C@H](N)C2)[C@H](c2cccc(Cl)c2F)[C@@]12C(=O)Nc1cc(Cl)c(F)cc12`, the IC50 was below 1000 nM.

Take `CC(C)(C)C[C@H]1N[C@@H](C(=O)NCCCNS(C)(=O)=O)[C@H](c2cccc(Cl)c2F)[C@@]12C(=O)Nc1cc(Cl)c(F)cc12`: the IC50 was below 1000 nM.

With `CC(C)(C)C[C@H]1N[C@@H](C(=O)NCC[C@H]2CC[C@H](NS(C)(=O)=O)C2)[C@H](c2cccc(Cl)c2F)[C@@]12C(=O)Nc1cc(Cl)c(F)cc12`, the IC50 is below 1000 nM.

Turning to `CC(C)(C)C[C@H]1N[C@@H](C(=O)NCCNS(C)(=O)=O)[C@H](c2cccc(Cl)c2F)[C@@]12C(=O)Nc1cc(Cl)c(F)cc12`, the IC50 is below 1000 nM.
